US20260101897A1, “PLANT ENVIRONMENTAL STRESS TOLERANCE IMPROVEMENT AGENT AND ENVIRONMENTAL STRESS TOLERANCE IMPROVEMENT METHOD” (priority 2022, published 2026)

Columns and labels:
Assay type in all cases: in vivo
broccoli = assay: Evaluation Example 13: tolerance to freezing stress, plant mortality; conditions: for Environmental stress suppressing rate: freezing stress Yes
Method: EGT (Example 17, Comparative Example 55) or GB (Comparative Examples 54 and 56) was prepared so as to have the concentration shown in Table 13 below. EGT and GB were commercially available products, and pure water was used as a solvent.
5 mL of pure water was added to 9-cm petri dishes on which filter paper was placed, and 10 broccoli seeds were seeded per petri dish. They were located in a growth chamber set at room temperature of 22° C., and the light period was 16 hours and the dark period was 8 hours. The light conditions were set such that the light intensity was 5000 lx in the central part under irradiation with the fluorescent lamp.
On the 6th day after seeding, pure water in the petri dish was removed, and then, 5 mL of EGT or 5 mL of GB was added to the petri dish, and freezing stress was applied by, 14 days after the addition, a first exposure to an environment of −20° C. for 20 minutes, and, 1 day after the first exposure, a second exposure to an environment of −20° C. for 20 minutes.
The surviving plants were counted 24 hours after the freezing stress was applied, and the mortality rate of the plants was evaluated as an index of physiological disorder. The mortality rate and the environmental stress suppressing rate were calculated according to the following formulas.

cotton = assay: Evaluation Example 3: tolerance to drying stress, leaf necrotizing; conditions: for Leaf necrotizing rate: test compound 0.1 mM (50 mL), 4 days after stoppage of water; for Leaf necrotizing rate / Environmental stress suppressing rate: drying stress Yes; for Environmental stress suppressing rate: test compound 0.1 mM
Method: (§1) EGT and GB were commercially available products, and pure water was used as a solvent.
In a plastic pot having a diameter of 60 mm and a height of 55 mm, 90 mL of granular soil (Kumiai horticultural soil) was placed, and one individual cotton (manufactured by TOHOKU SEED CO., LTD.) was seeded per pot.
They were managed in a greenhouse set at room temperature of 25° C. EGT in an amount of 50 mL or GB in an amount of 50 mL was added on the 23rd day after seeding, and drying stress was applied by stopping water supply for 4 days after 4 days from the addition of EGT or GB.
The leaves were collected 4 days after the stoppage of water and photographed with a digital camera. The photographed pictures of the leaves were analyzed with image analysis software WinROOF (manufactured by MITANI Corporation) to quantify the total leaf area and the green leaf area.
Using the above-described total leaf area and green leaf area, the leaf necrotizing rate after 4 days from the stoppage of water was evaluated. The leaf necrotizing rate and the environmental stress suppressing rate were calculated according to the following formulas.

turf (Manila grass) = assay: Evaluation Example 8: tolerance to drying stress, leaf mortality; conditions: for Leaf mortality rate: test compound 0.1 mM (12.5 mL), water supply stopped 7 days twice; for Leaf mortality rate / Environmental stress suppressing rate: drying stress Yes; for Environmental stress suppressing rate: test compound 0.1 mM
Method: as §1
In a plastic pot having a diameter of 135 mm and a height of 110 mm, 1 L of a raising seedling culture soil (manufactured by Kanetaki Co., Ltd.) was placed, and 100 mm square of turf (Manila grass) was planted per pot.
They were managed in a greenhouse set at room temperature of 25° C. 12.5 mL of EGT or 12.5 mL of GB was added about one month after planting, and water supply was stopped for 7 days thereafter. After cultivation under water supply for 7 days, drying stress was applied by stopping water supply for 7 days again.
The dead leaves of turf to which the drying stress was applied were counted, and the leaf mortality rate was evaluated as an index of physiological disorder. The leaf mortality rate and the environmental stress suppressing rate were calculated according to the following formulas.

[1] = test system: Arabidopsis thaliana (Col-0); assay: Evaluation Example 2: tolerance to drying stress, plant mortality
Method: A commercially available EGT was used, and pure water was used as a solvent.
(§2) One individual Arabidopsis thaliana (Col-0) was seeded in a plastic pot having a diameter of 60 mm and a height of 55 mm. Plastic deep dishes each having a diameter of 160 mm and a height of 28 mm were prepared, and six pots were respectively placed therein. As soil, 45 mL of vermiculite, 22.5 mL of granular soil (Kumiai horticultural soil), and 22.5 mL of vermiculite were placed in the pot in this order.
They were located in a growth chamber set at room temperature of 22° C., and the light period was 16 hours and the dark period was 8 hours. The light conditions were set such that the light intensity was 5000 lx in the central part under irradiation with the fluorescent lamp. Water supply was conducted from the bottom, and the water level was set at about 5 mm. EGT in an amount of 50 mL was added on the 22nd day after seeding, and drying stress was applied by stopping water supply for 18 days from 2 days after the addition of EGT.
The number of surviving plants was counted 18 days after the stoppage of water, and the plant mortality rate was evaluated as an index of physiological disorder. The mortality rate and the environmental stress suppressing rate were calculated according to the following formulas.

[2] = test system: Arabidopsis thaliana (Col-0); assay: Evaluation Example 5: tolerance to excessive nutrient stress, leaf wilting; conditions: for leaf wilting due to excessive nutrient stress, result in words: 0.5 mM; for Leaf wilting rate: test compound 0.5 mM (50 mL), excessive nutrient stress Yes (liquid fertilizer at 5-fold dilution), one day after stress; for Environmental stress suppressing rate: test compound 0.5 mM, excessive nutrient stress Yes
Method: as §1
as §2, with “four” for “six”
They were located in a growth chamber set at room temperature of 22° C., and the light period was 16 hours and the dark period was 8 hours. The light conditions were set such that the light intensity was 5000 lx in the central part under irradiation with the fluorescent lamp. Water supply was conducted from the bottom, and the water level was set at about 5 mm. On the 61st day after seeding, 50 mL of EGT or 50 mL of GB was added, and one day after that, a liquid fertilizer (HYPONeX, manufactured by Hyponex Japan Corp., Ltd.) was applied at a 5-fold dilution to give excessive nutrient stress.
The number of wilted leaves was evaluated one day after the excessive nutrient stress was applied. The leaf wilting rate and the environmental stress suppressing rate were calculated according to the following formulas.

[3] = test compound 0.1 mM (5 mL), freezing stress Yes (−20° C. for 20 minutes, twice), 24 hours after stress
[4] = test compound 0.1 mM, freezing stress No

Structure (SMILES)	Mortality rate (broccoli; [3]) [%]	Mortality rate (broccoli; [4]) [%]	Environmental stress suppressing rate (broccoli; test compound 0.1 mM) [%]	Leaf necrotizing rate (cotton) [%]	Environmental stress suppressing rate (cotton) [%]	Leaf mortality rate (turf (Manila grass)) [%]	Environmental stress suppressing rate (turf (Manila grass)) [%]	survival under drying stress, result in words ([1]; EGT 1 mM, drying stress)	Mortality rate ([1]; test compound 1 mM (50 mL), drying stress Yes, water supply stopped 18 days) [%]	Environmental stress suppressing rate ([1]; test compound 1 mM, drying stress Yes) [%]	leaf wilting due to excessive nutrient stress, result in words [2]	Leaf wilting rate [2] [%]	Environmental stress suppressing rate [2] [%]	mortality rate due to freezing stress, result in words (broccoli; 0.1 mM, freezing stress)	necrotizing due to drying stress, result in words (cotton; 0.1 mM, drying stress)	mortality rate due to drying stress, result in words (turf (Manila grass); 0.1 mM, drying stress)
C[N+](C)(C)[C@@H](Cc1c[nH]c(=S)[nH]1)C(=O)[O-] [EGT, L-(+)-ergothioneine]	38	0	56	26	50	35	65	all Arabidopsis thaliana plants survived	0	100	suppressed	24	76			
C[N+](C)(C)CC(=O)[O-] [GB, glycine betaine, reference compound]	100	0	0	68	0	100	0				hardly suppressed	89	11	not suppressed	not suppressed	not suppressed
